# Experimental data reported in patent publication US20150268247A1, “Assay for Screening of Anti-Viral Compounds That Inhibit Specific Interaction Interfaces Between Cullin5 and an ElonginB/ElonginC/ CBF-beta/HIV-1 Vif Complex” (UNIVERSITY OF ROCHESTER, priority 2012, published 2015).
# Residues, ends and D or L forms follow the SMILES beside them. *: point of attachment. 5FAM = O=C1OC2(c3ccc(O)cc3Oc3cc(O)ccc32)c2ccc(C(=O)*)cc21; Ahx = NCCCCCC(=O)O
# Target: T1, Vif/EloB/C/CBFβ (UniProt P69723+Q15369)
# T1 construct: Vif in the context of the Vif/EloB/C/CBFβ is full-length Vif (amino acids 1-192); co-expressing EloB1-118 and EloC17-112 from MCS1 and MCS2, respectively, from a pETDuet-1 vector (pEloBC); made in house; host or cells: E. coli BL21(DE3)
# Experiment: Fluorescence anisotropy of 5-FAM Cul5 peptides with Vif/EloB/C/CBFβ
# Assay type: binding, HIV-1 Vif; human EloB/C/CBFβ
# Text: The dissociation constant (KD) for each interaction is provided.
row,Structure (SMILES),Kd [µM]
1,CC(C)C[C@H](NC(=O)CCCCCNC(=O)c1ccc2c(c1)C(=O)OC21c2ccc(O)cc2Oc2cc(O)ccc21)C(=O)N[C@@H](CCCNC(=N)N)C(=O)N[C@@H](CCC(N)=O)C(=O)N[C@@H](CCC(=O)O)C(=O)N[C@@H](CO)C(=O)N[C@H](C(=O)N[C@H](C(=O)N[C@@H](CCCCN)C(=O)N[C@@H](CCC(N)=O)C(=O)N[C@@H](CCC(N)=O)C(=O)N[C@@H](Cc1c[nH]c2ccccc12)C(=O)O)[C@@H](C)O)C(C)C [Cul5(30-40)] ({5FAM-Ahx}-LRQESVTKQQW-OH),16
2,CC(C)C[C@H](NC(=O)[C@H](CS)NC(=O)[C@@H](NC(=O)[C@H](C)NC(=O)[C@H](Cc1c[nH]cn1)NC(=O)[C@@H](NC(=O)[C@H](CC(=O)O)NC(=O)[C@H](CO)NC(=O)[C@H](Cc1ccccc1)NC(=O)[C@H](CC(C)C)NC(=O)[C@H](CC(=O)O)NC(=O)[C@H](Cc1ccccc1)NC(=O)[C@H](Cc1c[nH]c2ccccc12)NC(=O)[C@H](CCC(N)=O)NC(=O)[C@H](CCC(N)=O)NC(=O)[C@H](CCCCN)NC(=O)CCCCCNC(=O)c1ccc2c(c1)C(=O)OC21c2ccc(O)cc2Oc2cc(O)ccc21)C(C)C)C(C)C)C(=O)N[C@@H](Cc1c[nH]c2ccccc12)C(=O)O [Cul5(37-53)] ({5FAM-Ahx}-KQQWFDLFSDVHAVCLW-OH),1.2
3,CC(C)C[C@H](NC(=O)CCCCCNC(=O)c1ccc2c(c1)C(=O)OC21c2ccc(O)cc2Oc2cc(O)ccc21)C(=O)N[C@@H](Cc1ccccc1)C(=O)N[C@@H](CO)C(=O)N[C@@H](CC(=O)O)C(=O)N[C@H](C(=O)N[C@@H](Cc1c[nH]cn1)C(=O)N[C@@H](C)C(=O)N[C@H](C(=O)N[C@@H](CS)C(=O)N[C@@H](CC(C)C)C(=O)N[C@@H](Cc1c[nH]c2ccccc12)C(=O)N[C@@H](CC(=O)O)C(=O)O)C(C)C)C(C)C [Cul5(43-54)],2.5
4,CC[C@H](C)[C@H](NC(=O)[C@H](CCCCN)NC(=O)[C@H](C)NC(=O)[C@@H]1CCCN1C(=O)CNC(=O)[C@H](CCCCN)NC(=O)[C@H](CC(=O)O)NC(=O)[C@H](CC(=O)O)NC(=O)[C@H](Cc1c[nH]c2ccccc12)NC(=O)[C@H](CC(C)C)NC(=O)[C@H](CS)NC(=O)[C@@H](NC(=O)[C@H](C)NC(=O)[C@H](Cc1c[nH]cn1)NC(=O)[C@@H](NC(=O)[C@H](CC(=O)O)NC(=O)[C@H](CO)NC(=O)[C@H](Cc1ccccc1)NC(=O)[C@H](CC(C)C)NC(=O)CCCCCNC(=O)c1ccc2c(c1)C(=O)OC21c2ccc(O)cc2Oc2cc(O)ccc21)C(C)C)C(C)C)C(=O)N[C@@H](Cc1c[nH]cn1)C(=O)N[C@@H](CCC(N)=O)C(=O)N[C@@H](C)C(=O)N[C@@H](CC(C)C)C(=O)O [Cul5(43-65)],4.7
